The values that follow are results of earlier work, collected in patent US20220023301A1, “METHODS OF TREATING AUTOIMMUNE DISEASES WITH SMALL MOLECULE NF-kB INHIBITORS” (ImmuneTarget, Inc., priority 2020, published 2022).

In the data set the test system is cuprizone induced neuroinflammation mouse model.

Turning to `CC(C)[C@]12O[C@H]1[C@@H]1O[C@]13[C@]1(O[C@H]1C[C@H]1C4=C(CC[C@@]13C)C(=O)OC4)[C@@H]2O` [Triptolide], where the note is “0.125 mg/kg administered intraperitoneally daily”, the “motor function and motor coordination compared to control group” value was “improves motor function and motor coordination”. Also, where the note is “0.125 mg/kg dose”, the Bax/Bcl-2 ratio entry is reported as “reduce Bax/Bcl-2 ratio”, the behavioral deficits result is given as “improve behavioral deficits” and the “number of OLGs precursor cells (NG-2+/O4+)” value is on record as “raise the number of OLGs precursor cells”.
